Results published in patent US20180362485A1, “N-HYDROXYFORMAMIDE COMPOUNDS AND COMPOSITIONS COMPRISING THEM FOR USE AS BMP l, TLL1 AND/OR TLL2 INHIBITORS” (GlaxoSmithKline Intellectual Property (No. 2) Limited, priority 2015, published 2018).

Key:
human TLL2 = molecular target: T1, human TLL2 (Homo sapiens, UniProt Q9Y6L7); assay: Enzyme inhibition assay for human TLL2; type: biochemical; settings: 18 nM TLL2, 5 μM promyostatin peptide substrate; read-out: pIC50, TLL2 enzyme inhibition assay (converted)
T1 construct: amino acids 26-1015 of human TLL2 (NM_012465); made in house
T1 sequence (Q9Y6L7 150-1015): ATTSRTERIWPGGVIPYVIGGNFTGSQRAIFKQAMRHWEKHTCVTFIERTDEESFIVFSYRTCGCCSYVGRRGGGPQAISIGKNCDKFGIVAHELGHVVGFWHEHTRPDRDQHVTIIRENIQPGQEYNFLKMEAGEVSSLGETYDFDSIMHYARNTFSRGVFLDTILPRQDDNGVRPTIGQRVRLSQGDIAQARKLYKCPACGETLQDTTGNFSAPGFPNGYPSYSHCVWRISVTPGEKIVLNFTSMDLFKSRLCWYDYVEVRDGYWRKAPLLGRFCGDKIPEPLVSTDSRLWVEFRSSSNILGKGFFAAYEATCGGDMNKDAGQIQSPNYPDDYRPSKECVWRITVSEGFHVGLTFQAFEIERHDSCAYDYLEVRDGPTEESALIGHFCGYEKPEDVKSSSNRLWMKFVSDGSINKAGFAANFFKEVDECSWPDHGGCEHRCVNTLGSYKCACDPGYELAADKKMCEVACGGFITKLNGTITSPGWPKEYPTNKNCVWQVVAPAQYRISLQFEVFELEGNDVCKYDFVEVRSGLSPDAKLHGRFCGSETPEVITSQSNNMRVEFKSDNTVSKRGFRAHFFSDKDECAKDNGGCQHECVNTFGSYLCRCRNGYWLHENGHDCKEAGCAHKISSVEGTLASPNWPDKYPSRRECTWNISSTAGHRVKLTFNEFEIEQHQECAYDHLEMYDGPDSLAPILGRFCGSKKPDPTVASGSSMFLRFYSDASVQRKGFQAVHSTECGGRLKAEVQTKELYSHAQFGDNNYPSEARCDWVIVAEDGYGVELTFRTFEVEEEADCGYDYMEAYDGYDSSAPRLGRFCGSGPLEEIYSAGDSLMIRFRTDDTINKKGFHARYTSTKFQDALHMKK
Excerpt: Buffer components are purchased from Sigma-Aldrich (St. Louis, Mo.) or an equivalent supplier. The promyostatin peptide substrate is custom synthesized by American Peptide Company (Sunnyvale, Calif.) using the myostatin protein sequence (Uniprot accession number 014793) surrounding the cleavage site reviewed in Hopkins, D. R., et al., 2007 Matrix Biology, 26, 508-523. The procollagen peptide substrate used in the high enzyme BMP1 cleavage assay is custom synthesized by 21st Century Biochemicals (Marlboro, Mass.) using the procollagen Iα protein sequence (Uniprot accession number P02452) surrounding the cleavage site reviewed in Hopkins, D. R., et al., 2007 Matrix Biology, 26, 508-523.
The DNA sequence encoding amino acids 26-1015 of human TLL2 (NM_012465) is PCR amplified from DNA template with the human RAGE signal sequence at the N-terminus and Avi-6×His epitope tags at the C-terminus ([…]). […]
Inhibition of human TLL1 and TLL2 recombinant enzymes is measured in 10 ul endpoint assays in 384-well format using the same promyostatin peptide substrate employed in the above Enzyme Inhibition Assay for human BMP1. […] TLL1 and TLL2 reactions are quenched with 5 μl of 0.5 M EDTA and plates are read on a ViewLux (Perkin Elmer) multilabel plate reader using a 480 nm excitation filter and 540 nm emission filter. […]

[1] = system: deposition of mature collagen; assay: Cell-based inhibition assay of mature collagen deposition (immunostaining); settings: Cardiac fibroblast; human cardiac fibroblasts, immunostaining of mature collagen I; read-out: pIC50, mature collagen cellular inhibition assay (converted)
Experimental: An adaptation of the collagen deposition assay described by Chen, C. Z. C., et al., British Journal of Pharmacology, 2009, 158, 1196-1209 is used to examine effect of compounds on procollagen I processing and collagen deposition. In the adapted assay, human cardiac fibroblasts are utilized. Processing of procollagen I is determined by a PICP ELISA assay and deposition of mature collagen is determined by immunostaining.
Human cardiac fibroblasts are cultured and maintained until passage 6 in FGM-3 media (Lonza, #CC-3132) in a 37° C. humidified incubator with 5% CO2. They are then seeded in 96-well black wall, clear bottom plates at 10,000 to 15,000 cells per well in eagle's minimum essential media (EMEM, ATCC #30-2003) containing 10% fetal bovine serum (FBS, Life Technologies #10082147), 1% Glutamax (Life Technologies #35050061) and 1% Penicillin and Streptomycin (Life Technologies #15070063). These cultures are placed in 37° C. incubator. The next day, media is removed by aspiration and cells are rinsed with phosphate buffered saline. Crowding media (also called ficoll media) is prepared by adding 112.5 mg/ml of ficoll70 and 75 mg/ml ficoll400 (GE healthcare #17-0310-10 and 17-0300-10, respectively), 100 μM ascorbic acid, 1% Glutamax and 1% Penicillin and Streptomycin to EMEM media. Test compounds (dissolved in DMSO) are diluted into crowding media and then added to the cells. Final concentration of DMSO in crowding media is less than 0.3%. Cells are treated for 24 to 48 hr in a 37° C. incubator. At the end of the treatment period, cell media are collected. The level of PICP in the media is determined by a PICP ELISA assay (Quidel #8003) following the manufacturer's protocol. Potencies of test compounds are calculated by fitting PICP levels, relative to untreated controls, to log (inhibitor) vs. response equation using Graphpad Prism software 5.0 and expressed as pIC50.
For some compounds, deposition of mature collagen is measured by immunostaining in addition to PICP levels. At the end of the treatment period, cells on culture plate are fixed with 100% methanol (prechilled to −20° C.) for 10 min. Then the cells are immunostained with mouse anti-mature collagen I antibody (1:500 dilution, Sigma#C2456), anti-mouse secondary antibody Alexa647 (1:500 dilution, Invitrogen#A21236) and Hoechst (for nuclei, 2 μg/ml, Invitrogen#H3596). Fluorescent image acquisition is done using the Operetta High Content Imaging system (Perkin Elmer). For each image field, the intensity of mature collagen staining is normalized with the number of nuclei. Normalized collagen levels are used to calculate the potency of test compounds with Graphpad Prism software, as described above.

IC50 (human TLL2): < 0.794 µM
Compound: CCCCC[C@@H](C(=O)NCNC(=O)c1ccc(-c2ccccc2)o1)[C@@H](CC)N(O)C=O [WO2015/104684 Example 24, N—(((R)-2-((R)-1-(N-hydroxyformamido)propyl)heptanamido)methyl)-5-phenylfuran-2-carboxamide]
IC50 [1]: < 1 µM
